Data: ChEMBL document CHEMBL3991601, “The target landscape of clinical kinase drugs” (Science, 2017)
Active and inactive are the calls of the source. Rule as the data show it, for most assays here: actives have a measured Kd and inactives only a lower limit.

Tests used:
[1] = target: T1, Bone morphogenetic protein receptor type-2 (Homo sapiens, UniProt Q13873)
T1 sequence (Q13873 whole entry): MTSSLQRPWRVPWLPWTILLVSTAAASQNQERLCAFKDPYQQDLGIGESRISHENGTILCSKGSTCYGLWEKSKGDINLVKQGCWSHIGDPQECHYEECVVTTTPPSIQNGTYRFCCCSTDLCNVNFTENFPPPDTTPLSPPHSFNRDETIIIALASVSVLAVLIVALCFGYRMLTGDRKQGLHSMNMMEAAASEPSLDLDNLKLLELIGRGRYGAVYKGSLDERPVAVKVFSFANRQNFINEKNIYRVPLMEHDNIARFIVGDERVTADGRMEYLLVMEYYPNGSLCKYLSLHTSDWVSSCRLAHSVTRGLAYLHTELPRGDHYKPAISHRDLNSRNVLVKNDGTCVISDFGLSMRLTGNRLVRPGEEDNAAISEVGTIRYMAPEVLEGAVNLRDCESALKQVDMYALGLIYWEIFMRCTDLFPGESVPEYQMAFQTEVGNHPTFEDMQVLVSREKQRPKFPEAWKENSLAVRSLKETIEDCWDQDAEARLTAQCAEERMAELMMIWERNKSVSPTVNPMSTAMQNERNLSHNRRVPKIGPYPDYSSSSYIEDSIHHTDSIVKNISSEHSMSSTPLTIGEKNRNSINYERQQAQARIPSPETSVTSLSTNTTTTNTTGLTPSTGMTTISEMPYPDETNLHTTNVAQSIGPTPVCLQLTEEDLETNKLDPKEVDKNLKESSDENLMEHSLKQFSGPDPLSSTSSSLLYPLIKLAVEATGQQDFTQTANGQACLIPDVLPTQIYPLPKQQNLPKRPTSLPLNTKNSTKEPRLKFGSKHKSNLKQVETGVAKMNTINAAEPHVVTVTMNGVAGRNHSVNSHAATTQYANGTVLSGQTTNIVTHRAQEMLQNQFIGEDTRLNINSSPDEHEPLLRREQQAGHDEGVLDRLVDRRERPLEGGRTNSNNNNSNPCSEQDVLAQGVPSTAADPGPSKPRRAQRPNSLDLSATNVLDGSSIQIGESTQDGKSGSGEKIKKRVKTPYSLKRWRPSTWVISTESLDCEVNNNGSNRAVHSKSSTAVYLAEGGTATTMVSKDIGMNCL

[2] = target: T2, Cytochrome c1, heme protein, mitochondrial (Homo sapiens, UniProt P08574)
T2 sequence (P08574 whole entry): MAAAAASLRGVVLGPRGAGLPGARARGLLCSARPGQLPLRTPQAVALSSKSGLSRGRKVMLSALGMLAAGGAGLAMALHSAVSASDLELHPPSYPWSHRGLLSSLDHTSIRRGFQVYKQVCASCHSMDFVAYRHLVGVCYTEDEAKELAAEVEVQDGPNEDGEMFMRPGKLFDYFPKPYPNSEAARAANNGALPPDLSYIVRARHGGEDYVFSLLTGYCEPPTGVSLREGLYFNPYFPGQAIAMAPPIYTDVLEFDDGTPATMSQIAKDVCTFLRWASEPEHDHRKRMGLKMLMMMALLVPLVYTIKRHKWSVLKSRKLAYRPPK

[3] = target: T3, ATP-dependent RNA helicase DDX1 (Homo sapiens, UniProt Q92499)
T3 sequence (Q92499 whole entry): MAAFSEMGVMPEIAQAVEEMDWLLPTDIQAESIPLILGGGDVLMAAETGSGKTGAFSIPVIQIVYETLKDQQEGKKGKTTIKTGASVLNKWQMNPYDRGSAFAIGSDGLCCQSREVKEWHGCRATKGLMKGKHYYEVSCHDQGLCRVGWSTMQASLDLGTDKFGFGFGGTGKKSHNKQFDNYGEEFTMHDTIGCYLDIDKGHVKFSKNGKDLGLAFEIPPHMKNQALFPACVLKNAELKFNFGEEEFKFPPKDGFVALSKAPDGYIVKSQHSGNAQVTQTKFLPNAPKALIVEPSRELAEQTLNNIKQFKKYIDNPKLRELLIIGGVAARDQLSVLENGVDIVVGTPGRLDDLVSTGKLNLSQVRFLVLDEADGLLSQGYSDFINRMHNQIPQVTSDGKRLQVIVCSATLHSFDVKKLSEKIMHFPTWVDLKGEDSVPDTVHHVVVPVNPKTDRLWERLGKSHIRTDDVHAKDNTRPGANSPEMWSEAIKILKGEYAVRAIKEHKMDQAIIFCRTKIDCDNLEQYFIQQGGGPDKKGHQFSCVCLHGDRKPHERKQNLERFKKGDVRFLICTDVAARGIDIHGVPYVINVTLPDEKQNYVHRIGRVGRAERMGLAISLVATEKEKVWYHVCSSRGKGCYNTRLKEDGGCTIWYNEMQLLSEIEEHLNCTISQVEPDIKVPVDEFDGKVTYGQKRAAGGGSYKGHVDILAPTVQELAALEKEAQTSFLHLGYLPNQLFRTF

[4] = target: Mitogen-activated protein kinase kinase kinase kinase 4 (Homo sapiens, UniProt O95819)
[5] = target: T4, Phosphorylase b kinase gamma catalytic chain, liver/testis isoform (Homo sapiens, UniProt P15735)
T4 sequence (P15735 whole entry): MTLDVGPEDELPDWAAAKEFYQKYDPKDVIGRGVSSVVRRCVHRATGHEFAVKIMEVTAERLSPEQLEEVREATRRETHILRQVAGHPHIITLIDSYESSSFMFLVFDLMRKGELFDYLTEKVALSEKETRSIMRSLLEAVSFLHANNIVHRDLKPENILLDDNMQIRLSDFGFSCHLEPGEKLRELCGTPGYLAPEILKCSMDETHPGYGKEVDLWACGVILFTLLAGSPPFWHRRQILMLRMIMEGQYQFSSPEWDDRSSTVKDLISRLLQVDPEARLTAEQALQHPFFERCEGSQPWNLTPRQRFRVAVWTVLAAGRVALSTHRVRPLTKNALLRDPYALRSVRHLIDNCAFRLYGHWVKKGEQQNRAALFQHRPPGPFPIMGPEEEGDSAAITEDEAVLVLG

[6] = target: Serine/threonine-protein kinase N1 (Homo sapiens, UniProt Q16512)
[7] = target: Proto-oncogene tyrosine-protein kinase Src (Homo sapiens, UniProt P12931)
[8] = target: Tyrosine-protein kinase SYK (Homo sapiens, UniProt P43405)
Also: in the data inactive means no Kd found up to 30 µM.

Chain of Serine/threonine-protein kinase N1 (Q16512 whole entry): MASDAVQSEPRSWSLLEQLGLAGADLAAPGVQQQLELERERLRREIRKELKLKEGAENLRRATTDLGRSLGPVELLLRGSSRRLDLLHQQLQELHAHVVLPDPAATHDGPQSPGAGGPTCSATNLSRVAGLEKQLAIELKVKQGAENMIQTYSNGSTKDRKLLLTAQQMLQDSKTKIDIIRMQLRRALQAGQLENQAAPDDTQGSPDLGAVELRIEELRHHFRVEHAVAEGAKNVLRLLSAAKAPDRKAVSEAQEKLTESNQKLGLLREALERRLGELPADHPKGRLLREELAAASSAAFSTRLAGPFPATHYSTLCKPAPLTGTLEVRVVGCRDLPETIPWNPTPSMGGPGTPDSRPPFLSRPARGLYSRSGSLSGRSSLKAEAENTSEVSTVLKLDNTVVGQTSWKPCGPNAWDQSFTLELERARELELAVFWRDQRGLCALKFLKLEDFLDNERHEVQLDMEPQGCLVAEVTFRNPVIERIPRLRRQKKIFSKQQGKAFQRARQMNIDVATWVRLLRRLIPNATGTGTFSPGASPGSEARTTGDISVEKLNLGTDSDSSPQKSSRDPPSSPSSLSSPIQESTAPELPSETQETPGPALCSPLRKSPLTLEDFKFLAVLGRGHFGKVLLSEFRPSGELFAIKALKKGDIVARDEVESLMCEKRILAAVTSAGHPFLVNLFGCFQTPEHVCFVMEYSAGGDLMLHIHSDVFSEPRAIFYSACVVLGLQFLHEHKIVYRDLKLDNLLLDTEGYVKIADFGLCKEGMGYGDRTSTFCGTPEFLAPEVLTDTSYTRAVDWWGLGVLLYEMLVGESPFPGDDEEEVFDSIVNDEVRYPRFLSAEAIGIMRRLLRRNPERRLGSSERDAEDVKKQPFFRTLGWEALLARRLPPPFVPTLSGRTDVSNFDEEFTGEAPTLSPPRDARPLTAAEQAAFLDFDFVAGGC
Chain of Mitogen-activated protein kinase kinase kinase kinase 4 (O95819 whole entry, canonical isoform): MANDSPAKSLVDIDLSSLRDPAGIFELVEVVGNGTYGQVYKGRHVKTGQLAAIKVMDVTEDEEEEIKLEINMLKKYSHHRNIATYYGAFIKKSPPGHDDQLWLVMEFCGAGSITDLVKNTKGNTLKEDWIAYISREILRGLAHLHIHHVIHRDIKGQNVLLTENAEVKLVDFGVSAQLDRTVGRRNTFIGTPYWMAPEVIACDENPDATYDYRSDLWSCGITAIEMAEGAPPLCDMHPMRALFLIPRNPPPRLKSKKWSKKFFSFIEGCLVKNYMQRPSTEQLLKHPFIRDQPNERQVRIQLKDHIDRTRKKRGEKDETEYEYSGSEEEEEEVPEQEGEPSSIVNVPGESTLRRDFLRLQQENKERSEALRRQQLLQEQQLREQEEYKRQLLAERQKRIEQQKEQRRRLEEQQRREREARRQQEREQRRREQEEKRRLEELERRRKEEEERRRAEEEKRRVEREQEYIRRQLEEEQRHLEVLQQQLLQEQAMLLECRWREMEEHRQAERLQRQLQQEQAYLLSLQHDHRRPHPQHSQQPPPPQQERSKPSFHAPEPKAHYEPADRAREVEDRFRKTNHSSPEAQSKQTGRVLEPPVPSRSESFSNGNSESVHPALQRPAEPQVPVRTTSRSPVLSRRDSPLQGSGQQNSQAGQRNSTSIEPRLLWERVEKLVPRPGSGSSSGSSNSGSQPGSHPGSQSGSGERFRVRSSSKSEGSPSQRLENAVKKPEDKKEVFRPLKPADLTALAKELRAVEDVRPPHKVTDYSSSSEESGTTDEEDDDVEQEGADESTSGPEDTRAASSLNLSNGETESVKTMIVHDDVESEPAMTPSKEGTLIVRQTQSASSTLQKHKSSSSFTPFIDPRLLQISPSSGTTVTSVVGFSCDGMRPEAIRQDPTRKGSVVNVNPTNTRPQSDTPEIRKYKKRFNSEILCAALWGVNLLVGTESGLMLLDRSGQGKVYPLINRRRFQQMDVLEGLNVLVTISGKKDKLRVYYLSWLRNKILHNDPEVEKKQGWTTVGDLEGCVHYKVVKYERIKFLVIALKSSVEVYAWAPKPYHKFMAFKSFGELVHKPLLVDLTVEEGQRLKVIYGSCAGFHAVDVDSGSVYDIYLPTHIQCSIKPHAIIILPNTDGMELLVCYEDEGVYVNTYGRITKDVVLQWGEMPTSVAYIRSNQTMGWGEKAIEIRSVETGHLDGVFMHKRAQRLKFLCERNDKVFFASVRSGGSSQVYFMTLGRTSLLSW
Chain of Proto-oncogene tyrosine-protein kinase Src (P12931 2-536 limits assumed): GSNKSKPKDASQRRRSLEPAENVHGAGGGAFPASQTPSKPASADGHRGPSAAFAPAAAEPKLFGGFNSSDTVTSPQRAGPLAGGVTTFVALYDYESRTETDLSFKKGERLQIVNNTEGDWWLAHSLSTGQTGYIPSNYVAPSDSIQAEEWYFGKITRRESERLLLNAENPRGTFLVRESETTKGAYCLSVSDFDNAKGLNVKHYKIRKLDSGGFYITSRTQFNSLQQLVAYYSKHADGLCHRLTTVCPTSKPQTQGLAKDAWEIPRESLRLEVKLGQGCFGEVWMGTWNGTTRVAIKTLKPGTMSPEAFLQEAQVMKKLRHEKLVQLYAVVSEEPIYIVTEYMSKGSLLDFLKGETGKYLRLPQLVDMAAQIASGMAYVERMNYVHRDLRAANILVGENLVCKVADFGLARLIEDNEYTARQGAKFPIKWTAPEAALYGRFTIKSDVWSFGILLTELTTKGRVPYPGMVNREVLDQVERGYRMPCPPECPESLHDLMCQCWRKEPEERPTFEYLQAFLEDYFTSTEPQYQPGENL

Row | Compound | Kd [1] | Kd [2] | Kd [3] | Kd [4] | Kd [5] | Kd [6] | Kd [7] | Kd [8]
1 | CO[C@H]1C[C@@H]2CC[C@@H](C)[C@@](O)(O2)C(=O)C(=O)N2CCCC[C@H]2C(=O)O[C@H]([C@H](C)C[C@@H]2CC[C@@H](O)[C@H](OC)C2)CC(=O)[C@H](C)/C=C(\C)[C@@H](O)[C@@H](OC)C(=O)[C@H](C)C[C@H](C)/C=C/C=C/C=C/1C [SIROLIMUS] | > 30 µM (inactive) | > 30 µM (inactive) | > 30 µM (inactive) | > 30 µM (inactive) | > 30 µM (inactive) | > 30 µM (inactive) | > 30 µM (inactive) | > 30 µM (inactive)
2 | CCS(=O)(=O)c1cccc(-c2cc(C(=O)NC3CCN(C)CC3)c(C)c3[nH]c4ncc(C)cc4c23)c1 [TAK-901] | > 30 µM (inactive) | > 30 µM (inactive) | > 30 µM (inactive) | > 30 µM (inactive) | > 30 µM (inactive) | 2.98 µM (active) | 0.092 µM (active) | 4.66 µM (active)
3 | CO[C@H]1C[C@@H]2CC[C@@H](C)[C@@](O)(O2)C(=O)C(=O)N2CCCC[C@H]2C(=O)O[C@H]([C@H](C)C[C@@H]2CC[C@@H](OC(=O)C(C)(CO)CO)[C@H](OC)C2)CC(=O)[C@H](C)/C=C(\C)[C@@H](O)[C@@H](OC)C(=O)[C@H](C)C[C@H](C)/C=C/C=C/C=C/1C [TEMSIROLIMUS] | > 30 µM (inactive) | > 30 µM (inactive) | > 30 µM (inactive) | > 30 µM (inactive) | > 30 µM (inactive) | > 30 µM (inactive) | > 30 µM (inactive) | > 30 µM (inactive)
4 | COc1cc2c(Nc3ccc(Cl)c(Cl)c3F)ncnc2cc1OC[C@@H]1C[C@@H]2CN(C)C[C@@H]2C1 [TESEVATINIB] | > 30 µM (inactive) | > 30 µM (inactive) | > 30 µM (inactive) | 1.91 µM (active) | > 30 µM (inactive) | > 30 µM (inactive) | 1.13 µM (active) | > 30 µM (inactive)
5 | O=C(Cc1ccc(-c2ccc(OCCN3CCOCC3)cc2)cn1)NCc1ccccc1 [TIRBANIBULIN] | > 30 µM (inactive) | > 30 µM (inactive) | > 30 µM (inactive) | > 30 µM (inactive) | > 30 µM (inactive) | > 30 µM (inactive) | > 30 µM (inactive) | > 30 µM (inactive)
6 | O=C1NC(=O)[C@@H](c2cn3c4c(cccc24)CCC3)[C@@H]1c1c[nH]c2ccccc12 [TIVANTINIB] | > 30 µM (inactive) | > 30 µM (inactive) | > 30 µM (inactive) | > 30 µM (inactive) | > 30 µM (inactive) | > 30 µM (inactive) | > 30 µM (inactive) | > 30 µM (inactive)
7 | C[C@@H](NC(=O)c1ncnc(N)c1Cl)c1ncc(C(=O)Nc2cc(C(F)(F)F)c(Cl)cn2)s1 [TOVORAFENIB] | > 30 µM (inactive) | > 30 µM (inactive) | > 30 µM (inactive) | > 30 µM (inactive) | > 30 µM (inactive) | > 30 µM (inactive) | > 30 µM (inactive) | > 30 µM (inactive)
8 | Cc1cc(Nc2ncnc3ccc(NC4=NC(C)(C)CO4)cc23)ccc1Oc1ccn2ncnc2c1 [TUCATINIB] | > 30 µM (inactive) | > 30 µM (inactive) | > 30 µM (inactive) | > 30 µM (inactive) | > 30 µM (inactive) | > 30 µM (inactive) | > 30 µM (inactive) | > 30 µM (inactive)
9 | Cn1ncc(Cl)c1-c1cc(C(=O)N[C@H](CN)Cc2ccc(F)c(F)c2)oc1Cl [UPROSERTIB] | > 30 µM (inactive) | > 30 µM (inactive) | > 30 µM (inactive) | > 30 µM (inactive) | > 30 µM (inactive) | 0.076 µM (active) | > 30 µM (inactive) | > 30 µM (inactive)
10 | CC(C)c1cc(CNc2nc(Nc3cc(C4CC4)[nH]n3)cc(N3CCN(C)CC3)n2)on1 [XL-228] | > 30 µM (inactive) | > 30 µM (inactive) | > 30 µM (inactive) | > 30 µM (inactive) | 2.41 µM (active) | 0.011 µM (active) | 0.459 µM (active) | > 30 µM (inactive)
11 | C[C@@H](N)c1ccc(C(=O)Nc2ccnc3[nH]ccc23)cc1 [Y-39983] | > 30 µM (inactive) | > 30 µM (inactive) | > 30 µM (inactive) | 0.946 µM (active) | > 30 µM (inactive) | 0.253 µM (active) | > 30 µM (inactive) | > 30 µM (inactive)
12 | CN1C/C=C/CCOc2cccc(c2)-c2ccnc(n2)Nc2cccc(c2)C1 [ZOTIRACICLIB] | > 30 µM (inactive) | > 30 µM (inactive) | > 30 µM (inactive) | > 30 µM (inactive) | > 30 µM (inactive) | 1.69 µM (active) | > 30 µM (inactive) | > 30 µM (inactive)
